From patent US10266838B2, “Methods for enhancing root growth of plants” (Academia Sinica, priority 2013, dated 2019)

What was measured:
rice half seeds = assay: rice half-seed transient expression assay, GUS activity; format: cell-based; settings: rice half seeds transfected by particle bombardment, with vs without 10 μM ABA for 16 h
Description: (§1) (A) Three copies of ABRC321 confer high ABA inducibility in a rice half-seed transient expression assay. Rice half seeds were transfected with plasmids shown in FIG. 1 by particle bombardment, and incubated with (+) or without (−) 10 μM ABA for 16 h, and GUS activity was analyzed. (B) Three copies of ABRC321 confer high ABA inducibility in leaves and roots in transgenic rice. Constructs shown in FIG. 1 were introduced into the rice genome. Leaves and roots of 10-day-old T2 seedlings of four transgenic lines were collected and incubated in water with (+) or without (−) 10 μM ABA for 16 h, and GUS activity was analyzed. Numbers above bars indicate fold induction of GUS activity by ABA. Error bars represent SD (n=3).
Two 56-bp complementary oligonucleotides, containing the CE3 and A2 elements from the HVA1 promoter and the CE1 element from the HVA22 promoter (Shen Q, Zhang P, & Ho T H (1996) Plant Cell 8(7):1107-1119) and restriction sites KpnI, XhoI and XbaI were synthesized, annealed, and designated as ABRC321 (FIG. 1A). ABRC321 was self-ligated in two or three copies in correct orientations. For expression of GUS under the control of ABRC321, 1-3 copies ABRC321 was inserted into the XbaI site in MP64, so that the ABRC321 was fused upstream of the barley Amy64 minimal promoter, generating constructs 1xABRC321-GUS, 2x-ABRC321-GUS and 3xABRC321-GUS (FIG. 1(B)). For expression of HVA1 under the control of 3xABRC321, GUS cDNA in construct 3xABRC321-GUS was replaced with HVA1 cDNA, generating construct 3xABRC321-HVA1 (FIG. 1(C)) (SEQ ID NO: 6).
In this study, we used a […] promoter, ABRC321, to express recombinant HVA1 (rHVA1) in plants. […] ABRC321 was generated by fusion of coupling element CE3 and ABRE2 (A2) from the HVA1 ABRC3 and coupling element CE1 from the HVA22 ABRC1 (Shen Q, Zhang P, & Ho T H (1996) Plant Cell 8(7):1107-1119). The reporter gene GUS was fused downstream of 1-3 tandem repeats of ABRC321 and the Amy64 minimal promoter.

Tainung 67 seedlings = assay: root growth of rice seedlings on half-strength MS medium containing ABA and/or NPA; format: in vivo, Oryza sativa L. cv Tainung 67; design: lateral root morphology: dose or concentration left out as unconfirmed
Source text: Three-day-old seedlings of Tainung 67 (T) transgenic lines were transferred to half-strength MS medium without sugar but containing ABA or sorbitol, and root morphology was examined. (A) Morphology of various branch roots.
Three-day-old seedlings of Tainung 67 (T) transgenic lines that containing seminal roots only were transferred to half-strength MS (½) medium without sugar but containing ABA and/or NPA for 11 days, and root morphology was examined. […] The dots indicate starting points of root growth after transferring to MS medium containing ABA and/or NPA.
Rice cultivars Oryza sativa L. cv Tainung 67 and Oryza sativa L. cv Kitaake were used for all experiments. Plasmid was introduced into Agrobacerium tumefaciens strain EHA101 and rice transformation was performed as described (Chen P-W, et al. (2002) J Biol Chem 277:13641-13649). Homozygous transgenic lines were used in all experiments. For observation of root growth, transgenic rice seeds were germinated on the surface of half-strength MS medium without sugar but with or without ABA. For hydroponic culture, Yoshida solution was used. Seedlings were normally grown in 28′C incubator with 12 hr daily light.
Rice branch roots could be classified into four types: seminal root, also called radical, the first root grows during germination; crown roots, roots emerge from the node of coleoptile; adventitious roots, roots differentiate from the nodes of main stem and tillers, lateral roots, roots branch from above three types of roots and can bear additional large or small lateral roots until the fifth order of branching. The number of each type of root was measured by simple counting. Root length was measured, number of roots was counted, and lateral root density was determined by dividing lateral root number with root length. Error bars represent SD (n=12). Significance levels: *P<0.05, **P<0.01, ***P<0.001.
In medium without any treatment, newly grown crown and lateral roots were more abundant in Tainung 67 transgenic lines than in WT (FIG. 12(A)). […] In the presence of NPA, growth of all types of roots was inhibited (FIG. 12(C)).

PIN genes = assay: quantitative real-time RT-PCR of auxin transporter genes in roots; format: in vivo, rice; settings: Yoshida solution with or without 0.2 μM ABA for 14 days, root RNA
Description: Four-day-old seedlings of Tainung 67 (T) transgenic lines were germinated on MS medium for four days and transfer to full strength Yoshida solution with or without 0.2 μM ABA for 14 days. Total RNA was extracted from roots and subjected to quantitative real-time RT-PCR.
To determine whether the promotion of root growth by HVA1 in transgenic rice involves the auxin (IAA)-dependent pathway, the expression of various genes involved in auxin transport and signaling were determined. […] The rice PIN family is encoded by 12 genes, with expression of each being spatially and temporally regulated (Wang J R, et al. (2009) Mol Plant 2(4):823-831).

[1] = test system: leaves and roots in transgenic rice; assay: GUS activity in leaves and roots of stably transformed transgenic rice; format: in vivo; settings: 10-day-old T2 seedlings, 10 μM ABA for 16 h, compared among all constructs
Description: as §1
All ABRC321:GUS constructs were also used for rice stable transformation.

[2] = 0.2 μM ABA plus 1 μM NPA, 11 days

With “1xABRC321: synthetic ABA-inducible promoter, one copy of ABRC321 (CE3, A2, CE1 elements) fused upstream of Amy64 minimal promoter and GUS (DNA GGTACCGCAACGCGTGTCCTCCCTACGTGGCGGCTCGAGATTGCCACCGGTCTAGA; synthetic promoter element in GUS reporter construct, further chemistry not given here)” the “induction of GUS activity by ABA” value (rice half seeds) was 19 fold.

In the case of `CC1=CC(=O)CC(C)(C)[C@@]1(O)/C=C/C(C)=C\C(=O)O` [ABA, abscisic acid], the “root length and lateral root density” value (Tainung 67 seedlings; ABA concentration of 0.1 μM, 14 days) is reported as “significantly increased”, the root density (Tainung 67 seedlings; ABA concentrations higher than 0.5 M, 14 days) is reported as “decreased” and the lateral root morphology (Tainung 67 seedlings; ABA concentrations, 14 days) is reported as “shorter and thicker”. The “expression of several PIN genes” value (PIN genes) was “up-regulated”.

For `O=C(O)c1ccccc1C(=O)Nc1cccc2ccccc12` [NPA, N-(1-naphthyl) phtalamic acid], the “growth of crown roots and lateral roots” value (Tainung 67 seedlings; [2]) was “also inhibited”, the “growth of seminal roots” value (Tainung 67 seedlings; [2]) was “continued to grow” and the “growth of all types of roots” value (Tainung 67 seedlings; 1 μM NPA only, 11 days, WT and transgenic lines) was “inhibited”.

B1: 3xABRC321: synthetic ABA-inducible promoter, three tandem copies of ABRC321 driving GUS (nucleic acid)
DNA: GGTACCGCAACGCGTGTCCTCCCTACGTGGCGGCTCGAGATTGCCACCGGGGTACCGCAACGCGTGTCCTCCCTACGTGGCGGCTCGAGATTGCCACCGGGGTACCGCAACGCGTGTCCTCCCTACGTGGCGGCTCGAGATTGCCACCGGTCTAGA
modifications: Synthetic prompter 3XABRC321
notes: synthetic ABA-inducible promoter, three tandem copies of ABRC321 driving GUS
For B1, the “induction of GUS activity by ABA” value (rice half seeds) was 33 fold and the “ABA induction of GUS activity in leaves and roots” value [1] was “most highly induced by ABA among all constructs”.

B2: 2xABRC321: synthetic ABA-inducible promoter, two tandem copies of ABRC321 driving GUS (nucleic acid)
DNA: GGTACCGCAACGCGTGTCCTCCCTACGTGGCGGCTCGAGATTGCCACCGGGGTACCGCAACGCGTGTCCTCCCTACGTGGCGGCTCGAGATTGCCACCGGTCTAGA
modifications: synthetic promoter element in GUS reporter construct, further chemistry not given here
In the case of B2, the “induction of GUS activity by ABA” value (rice half seeds) is reported as 20 fold.
